Reference: patent US10093706B2, “Dominant positive hnRNP-E1 polypeptide compositions and methods” (Indiana University Research and Technology Corporation, priority 2017, dated 2018)
Values joined by “and” are separate entries in the source; they are usually repeats but may differ in a detail not shown here. Equal entries are not always repeated.

What was measured:
HPV16 L2 RNA = experiment: In vitro translation of HPV16 L2 protein; assay type: biochemical, Human Papillomavirus type 16; settings: after quenching excess ß-ME by NEM (2 mM)
Experimental: (§1) In vitro transcription-translation was carried out using the Linked SP6/T7 In Vitro Transcription/Translation Kit (Roche Applied Science) after addition of one of various targeted DNAs—pSPT18-25-hnRNP-E1 DNA, or Pst1-linearized plasmid pSPT18-folate receptor-α, or HPV16 L2 DNA, (0.5 μg/reaction)—to the transcription mix as described. In other experiments, the capacity for perturbing the interaction of hnRNP-E1 with the 25-nt hnRNP-E1 cis-element during in vitro translation was assessed in the presence of either scrambled oligonucleotides (5′-[…]-3′ SEQ ID NO:20) or specific antisense oligonucleotides (5′-[…]-3′ SEQ ID NO:21) generated against the 25-nt hnRNP-E1 mRNA cis-element (GenScript USA, Piscataway, N.J.).
(§2) Construction of plasmids for generation of HPV16 L2 RNA, gel-shift and in vitro translation studies were carried as described with additional treatments shown in FIGS. 10A-10D

[1] = system: 18-nt folate receptor-α mRNA cis-element-linked CAT reporter; experiment: CAT reporter driven by 18-nt folate receptor-α mRNA cis-element, co-transfected with hnRNP-E1 plasmids in HeLa-IU1-HF cells; assay type: cell-based, human; settings: pSV-β-gal normalization
Experimental: A plasmid containing CAT reporter DNA driven by an 18-nucleotide folate receptor-α mRNA cis-element, was constructed as previously described. Briefly, HeLa-IU1-HF cells were grown to 70-80% confluence and then co-transfected with CAT reporter DNA driven by an 18-nucleotide folate receptor-α mRNA cis-element and various construct combinations of either wild-type and mutant hnRNP-E1 plasmids using X-tremeGENE DNA transfection reagent (Roche Applied Science). The transfection reactions were set up with 6-μg DNA and 12-μL XtremeGENE DNA transfection reagent for each well. In these transfection experiments, pSV-ß-gal was used as an internal control to monitor the efficiency of transfection of cells. After 48 h cells were harvested for protein determination using the BCA protein assay (Pierce); ß-galactosidase activity by the ß-galactosidase chemiluminescent assay (Roche Diagnostics); and CAT activity using a CAT ELISA kit (Roche Diagnostics). All experiments were carried out 4 times with 3 replications per treatment. The data from non-transfected cells was used as a background and subtracted from that obtained with transfected cells. All data were normalized using the internal standard and protein concentration for each treatment.

[2] = system: HPV16 L2 mRNA cis-element; experiment: Gel-shift assay of hnRNP-E1 proteins with HPV16 L2 mRNA; assay type: binding, Human Papillomavirus type 16; settings: absence of reducing agents; versus wild-type and G292A
Experimental: (§3) Parenthetically, there was no significant difference in RNA binding to GST-hnRNP-E1 by use of either 32P-RNA probes or 35S-labeled RNA probes used. Other studies assessed the effect of iron(II) or iron(III) on homocysteine-induced RNA-protein interactions.
as §2

[3] = system: newly synthesized [^35S]hnRNP-E1 in placental 1584-HF cells; experiment: Biosynthetic rate of hnRNP-E1 after protein transfection into placental 1584-HF cells; assay type: cell-based, human; settings: protein transfected in placental 1584-HF cells
Text: (§4) Transfection of purified recombinant wild-type or various mutant hnRNP-E1 proteins into cells was achieved using the Xfect™ Protein Transfection Kit (Clontech, Mountain View, Calif.). Briefly, placental 1584-HF cells in 10-cm dishes at 70-80% confluence were transfected with 2.4-mL serum-free medium and Xfect Protein Transfection Reagent (1.2-mL) containing 20-μg of either wild-type hnRNP-E1-, or highest-affinity (HA)-hnRNP-E1(C293S)-mutant, or wild-type-like hnRNP-E1 (G292A)-mutant proteins and 2-μg of ß-galactosidase at 37° C. for 60-min. After cysteine-starvation for 4-h, an aliquot of cells were assessed for ß-galactosidase activity (to measure the efficiency of co-transfection of ß-galactosidase) and the remaining cells were pulsed with L-[^35S]cysteine (250-μCi) and assessed for specific [^35S]cysteine incorporated into folate receptor to determine the biosynthetic rate of this protein. A similar protocol was employed for analysis of newly synthesized [^35S]hnRNP-E1 using anti-hnRNP-E1 antiserum-coupled agarose and control agarose in order to derive values for specific [^35S]cysteine incorporated into hnRNP-E1 and thereby determine the biosynthetic rate of this protein.

[4] = target: [^35S]25-nt hnRNP-E1 mRNA cis-element; experiment: Dissociation constant (KD) of GST-hnRNP-E1 or its mutant proteins for the 25-nt hnRNP-E1 mRNA cis-element; assay type: binding, human; settings: L-Homocysteine 0 μM
Experimental: (§5) Methods for testing the ability of an engineered hnRNP-E1 variant polypeptide to bind to an RNA comprising the sequence of SEQ ID NO:6 are known in the art. Such methods include, but are not limited to, RNA electrophoretic mobility shift assays, as exemplified herein, RNA pull-down assays, and oligonucleotide-targeted RNase H protection assays. Such assays are conducted in the presence or absence of homocysteine to determine the RNA-binding dependence of any particular hnRNP-E1 polypeptide tested on the presence of homocysteine. […] Additional methods are outline in Tang et al. (“Incrimination of heterogeneous nuclear ribonucleoprotein E1 (hnRNP-E1) as a candidate sensor of physiological folate deficiency.” J Biol Chem. 2011; 286(45):39100-39115), which is incorporated herein in its entirety.
(§6) Specific binding was determined by subtracting values of non-specific binding with GST from those of total binding with GST-hnRNP-E1; (however, in Table 1 and FIG. 6G, non-specific binding using bovine serum albumin (BSA) was subtracted from total binding to GST-hnRNP-E1 to determine specific binding). The KD was calculated from a Scatchard plot using GraphPad Prism 6 from GraphPad Software (San Diego, Calif.), as previously described in the art.

[5] = system: newly synthesized [^35S]folate receptors in placental 1584-HF cells; experiment: Biosynthetic rate of folate receptors after protein transfection into placental 1584-HF cells; assay type: cell-based, human; settings: protein transfected in placental 1584-HF cells
Text: as §4

hnRNP-E1 mRNA = experiment: In vitro translation of hnRNP-E1; assay type: biochemical, human; settings: protein added after neutralizing ß-ME by N-ethylmaleimide
Experimental: as §1

[6] = system: 25-nt hnRNP-E1 mRNA cis-element; experiment: Gel-shift assay of hnRNP-E1 proteins with 25-nt hnRNP-E1 mRNA cis-element; assay type: binding, human; settings: absence of L-homocysteine
Experimental: as §3
(§7) Recombinant GST-plasmid DNA, pGST-hnRNP-E1, pGST-hnRNP-E2, and related engineered variant plasmids were transformed into BL21 Escherichia coli from Novagen (Madison, Wis.). After induction by 1 mM isopropyl-1-thio-ß-D-galactopyranoside, the GST-hnRNP-E1 and engineered variant fusion proteins were individually purified using the B-PER GST Fusion Protein Purification Kit (Pierce, Rockford, Ill.). The eluted GST fusion proteins were dialyzed against 500 volumes of buffer to remove excess reducing reagents (such as dithiothreitol (DTT)) and assayed by SDS-PAGE and Western blots using anti-peptide hnRNP-E1 antiserum. Gel shift assays with target RNA were carried out as described.

[7] = target: [^35S]18-nt folate receptor-α mRNA cis-element; experiment: Dissociation constant (KD) of GST-hnRNP-E1 or its mutant proteins for the 18-nt folate receptor-α mRNA cis-element; assay type: binding, human; settings: L-Homocysteine 0 μM; listed as (HA)-hnRNP-E1(C293 S)-mutant
Experimental: as §5, §6

[8] = system: 18-nt folate receptor-α mRNA cis-element; experiment: Gel-shift assay of hnRNP-E1 proteins with 18-nt folate receptor-α mRNA cis-element; assay type: binding, human; settings: absence of homocysteine or other reducing agent
Experimental: as §3, §7

folate receptor-α mRNA = experiment: In vitro translation of folate receptor-α; assay type: biochemical, human; settings: presence of 2-mM NEM
Experimental: In vitro transcription-translation was carried out using the Linked SP6/T7 In Vitro Transcription/Translation Kit (Roche Applied Science) after addition of one of various targeted DNAs—pSPT18-25-hnRNP-E1 DNA, or Pst1-linearized plasmid pSPT18-folate receptor-α, or HPV16 L2 DNA, (0.5 μg/reaction)—to the transcription mix as described. In other experiments, the capacity for perturbing the interaction of hnRNP-E1 with the 25-nt hnRNP-E1 cis-element during in vitro translation was assessed in the presence of either scrambled oligonucleotides (5′-GCGTCGCTCGCTTCGCACGTGCGCC-3′ SEQ ID NO:20) or specific antisense oligonucleotides (5′-GGG AGC GAG CGG GCG GGA G-3′ SEQ ID NO:21) generated against the 25-nt hnRNP-E1 mRNA cis-element (GenScript USA, Piscataway, N.J.).

[9] = listed as (HA)-hnRNP-E1(C293S)-mutant

## GST-hnRNP-E1(C293S): highest-affinity mutant, cysteine-293 to serine in the KH3 domain of hnRNP-E1 (SEQ ID NO:2)
HPV16 L2 RNA
  HPV16 L2 protein signal: progressive reduction in signal
[1]
  folate receptor-α cis-element-linked CAT activity versus wild-type hnRNP-E1 or G292A control: two and one-half times stronger
[2]
  interaction with HPV16 L2 mRNA on gel-shift assays: greater interaction
[3]
  [^35S]cysteine-hnRNP-E1: 6.70 ± 1.74 c fmol/mg protein/h
  increase in the rate of biosynthesis of [^35S]hnRNP-E1: over 6 fold
[3]; [9]
  [^35S]cysteine-hnRNP-E1: 6.70 fmol/mg protein/h
[4]
  Kd: 0.39 nM
[5]
  [^35S]cysteine-folate receptor: 6.62 ± 0.74 c fmol/mg protein/h
[5]; [9]
  [^35S]cysteine-folate receptor: 6.62 fmol/mg protein/h
[5]; over wild-type and G292A controls
  increase of [^35S]folate receptors over controls: ~4 fold
hnRNP-E1 mRNA
  translation of hnRNP-E1 in vitro: markedly stimulated translation of hnRNP-E1 in vitro
[6]
  RNA-protein gel-shift signal: strong signal
[7]
  Kd: 0.27 nM and 0.2 nM
[8]
  RNA-protein signal: strongest RNA-protein signal
Folate receptor-α mRNA
  translation of folate receptor-α: maximally increased
